Experimental data: US20130310352A1, “DEXAMETHASONE COMBINATION THERAPY” (priority 2010, published 2013)

Key:
Assay type in all cases: cell-based, human
[1] = tested on: MM cell lines ARP1, MM.1S and MM.1R; assay: Apoptosis with or without IL-6 addition; conditions: 10 μM compound A, rhIL-6
Procedure: IL-6 is an important survival cytokine for MM (Klein B, Zhang X G, Jourdan M, et al. Interleukin-6 is the central tumor growth factor in vitro and in vivo in multiple myeloma. Eur Cytokine Netw. 1990; 1 (4):193-201; Gado K, Domjan G, Hegyesi H, Falus A. Role of INTERLEUKIN-6 in the pathogenesis of multiple myeloma. Cell Biol Int. 2000; 24 (4):195-209). […] For this purpose, different MM cell lines ARP1, MM.1S and MM.1R were cultured with or without recombinant hIL-6 (final concentration […]) and treated with or without 10 μM compound A for 2 days. As a positive control, MM.1S cells were treated with 40 μg/ml of dexamethasone with or without hIL-6 addition for the same period of time.
(§1) MM cell lines ARP1, MM.1S and MM.1R were cultured with 10 μM compound A for 3 days. rhIL-6 were added to final concentration of 5 ng/ml. As a positive control, MM.1S cells were treated with 40 μg/ml dexamethasone in the presence of 5 ng/ml of rhIL6 for the same time. Cells apoptosis rate was measured by annexin V staining. (B). Same MM cells were co-cultured with or without MM BMSC, and treated with 10 μM of compound A for 1 day. As a positive control, MM.1S cells were cocultured with or without BMSC and treated with 40 μg/ml dexamethasone for 1 day. CD138+ MM cells apoptosis rate was measured by Annexin V staining.

[2] = tested on: MM cell lines ARP1, MM.1S and MM.1R; assay: Apoptosis in coculture with BMSCs; conditions: 10 μM compound A, 24 hours, BMSC coculture
Procedure: For this purpose, BMSCs isolated from MM patient were cocultured with MM cell lines ARP1, MM.1S and MM.1R. The cells were treated with or without 10 μM of compound A for 24 hours. As a positive control, MM.1S cells were cocultured with or without BMSC and treated with or without 40 μg/ml of dexamethasone for 24 hours. After treatment, the MM cells were identified as CD138+ cells by APC-CD138 staining.
as §1

[3] = tested on: CD138+ primary MM cells; assay: Apoptosis of primary MM cells cocultured with BMSCs ex vivo; conditions: 10 μM, 24 hours, cocultured 1:1 with BMSCs
Procedure: (§2) MM cell lines ARP1, ARK, MM.1S, MM.1R and U266 were maintained in RPMI-1640 medium supplemented with 10% fetal bovine serum, 100 U/ml penicillin and 100 μg/ml streptomycin at 37° C. and 5% CO2 Primary MM cells and MM BMSCs were isolated from bone marrow aspirates of myeloma patients. PBMCs were obtained from healthy volunteers. The study was approved by the Institutional Review Board at The University of Texas M.D. Anderson Cancer Center. Anti-caspase-3, caspase-9, PARP, Bim, XIAP, cyclin D1, pp 70S6K (Thr389) and p27(Kip1) antibodies were purchased from Cell Signaling. Anti-bcl-2, Bc1-XL, Akt, pAkt (Thr 308), pAkt (Ser 473), p70S6K and β-actin antibodies were purchased from Santa Cruz. Compound A was dissolved in DMSO at 10 mM as stock solution. Dexamethasone and Propidium iodide (PI) were purchased from Sigma-Aldrich. Recombinant human IL6 was purchased from R&D Systems. FITC conjugated Annexin V was obtained from Invitrogen.
Apoptotic cells were determined as Annexin V positive cells.
To evaluate compound A function in primary MM cells, the study was extended to CD138+ primary MM cells freshly isolated from myeloma patients. […]
(A). […] Compound A induced MM cell apoptosis were measured by Annexin V staining as described in Materials and Methods. […] Cell growths were assessed by MTS assay. […]

[4] = tested on: PI3K-Akt-mTOR pathway in MM cells; assay: Immunoblotting, PI3K-Akt-mTOR pathway
Procedure: as §2
To further analyze the signaling pathways that were affected by compound A exposure in MM cells, immunoblotting was extended to other cell signaling molecules. First, the inhibitory effect of compound A on PI3K-Akt-mTOR pathway in MM cells was tested. […] This is probably because of increased apoptotic cells after compound A treatment. […] Such findings indicate that compound A inhibits PI3K-Akt-mTOR pathways in MM cells.
(§3) (A). […] Compound A induced activation and cleavage of caspase-3, caspase-9 and PARP is shown. (B). Same MM cells treated with 10 μM compound A were lysed for western blotting. (C) RP1 cells were treated with 10 μM compound A for 1, 6, 12 and 24 hours.

[5] = tested on: caspase 3, caspase 9 and PARP in ARP1, MM.1S and MM.1R; assay: Western blotting, caspases activation; conditions: 10 μM
Procedure: as §2
To elucidate compound A induced MM cell apoptosis, MM cell lines ARP1, MM.1S and MM.1R, treated with or without compound A for 24 hours, were assessed by Western blotting analysis.
as §3

[6] = tested on: MM cell lines ARP1, ARK, MM.1S, MM.1R and U266; assay: Annexin V apoptosis assay, MM cell lines
Procedure: Briefly, MM cells were cultured in 24-well plates and treated with 0 to 1 mM final concentrations of compound A for 24 or 72 hours. The cells were washed twice with cold PBS and resuspended in Annexin V binding buffer (Invitrogen). MM cells were stained with FITC-conjugated Annexin V and propidium iodide (PI) for 15 min at room temperature. Apoptotic cells were determined as Annexin V positive cells.
To evaluate the effect of compound A on myeloma cells, MM cell lines ARP1, ARK, MM.1S, MM.1R and U266 were treated with different doses of compound A for 24 hours or 72 hours. Compound A induced MM cells apoptosis were measured as described in Materials and Methods.
Five MM cell lines ARP1, ARK, MM.1S, MM.1R and U266 were cultured in the presence of 0 to 1 mM compound A. Cells were harvested after 1 day or 3 days of treatment. Compound A induced MM cell apoptosis were measured by Annexin V staining as described in Materials and Methods. […] Same MM cell lines were treated with 0 to 1 mM compound A for 1 or 3 days. […] Representative histograms of primary MM cells treated with compound A. (D). […] Cells were treated with different doses of compound A for 1 day.

[7] = tested on: p27 (Kip1) and cyclin D1 in MM cells; assay: Immunoblotting, cell cycle regulators; conditions: 10 μM compound A
Procedure: as §2, §3

[8] = 24 hours, ARP1, MM.1S and MM.1R

Nc1cc(C(F)(F)F)c(-c2cc(N3CCOCC3)nc(N3CCOCC3)n2)cn1 [compound A, 5-(2,6-di-morpholin-4-yl-pyrimidin-4-yl)-4-trifluoromethyl-pyridin-2-ylamine]
effect of IL6 addition on compound A induced MM cell apoptosis [1]: did not affect
effect of BMSCs on compound A induced MM cell apoptosis [2]: did not protect
primary MM cells apoptosis [3]: more than 70%
p-Akt at Ser473 and Thr308 ([4]; 10 μM compound A): down-regulated
total Akt levels ([4]; ARP1 and MM.1R cells, 10 μM): decreased
p-P70S6K levels ([4]; tested MM cell lines, 10 μM): decreased
total P70S6K expression ([4]; tested MM cell lines, 10 μM): remained constant
caspase 3 cleavage [5, 8]: cleavage
caspase 9 cleavage [5, 8]: cleavage
PARP cleavage ([5]; all tested cell lines): detected
MM cells apoptosis ([6]; 0 to 1 mM, 24 hours or 72 hours, Annexin V): in both a dose dependent and a time dependent manner
concentration inducing significant apoptosis in all tested MM cell lines ([6]; 24 hours, P<0.05 compared with control): ≥ 10 µM
cyclin D1 expression [7]: down-regulated
p27 (Kip1) protein expression [7]: up-regulated
